Results: patent US20070179112A1, “POLYMERIC NUCLEOSIDE PRODRUGS” (Reliable Biopharmaceutical, Inc., priority 2000, published 2007)

Experiments:
[1] = system: Snake Venom PhosphoDiEsterase, SVPDE (Phosphodiesterase I Type II)
snake phosphodiesterase = assay: Cleavage of oligo 6 by snake phosphodiesterase (Boehringer Mannheim), monitored by CGE; type: in vitro ADME, crotalus durissus; details: 0.5 μl enzyme in water (total volume 25 μl)
Experimental: Examples 13-22 describe cleavage of the Oligos 1-7. All cleavage experiments were performed at room temperature. The concentrations of the nucleases were reduced to slow down the rates of cleavage for the homoploymers. See S. Agrawal, in Delivery Strategies for Antisense Oligonucleotide Therapeutics, 275, 462-473, Ed. S. Akhtar, CAC Press, 1995. The Capillary Gel Electrophoresis equipment used for the studies were the Beckmman PAC/E 2200 system with Beckman Coulter E-CAP DNA capillary (#477477, […], 65 cm [27 cm effective length] loaded with Beckman Coulter E-CAP ssDNA 100-R gel and run using the Tris-Borate-Urea buffer prepared according to Beckman procedures. The CGE running conditions were as follows. The injection was done for 2 seconds at 10 kV followed by electro-osmotic flow with buffer for 30-60 min as needed at 10 kV. The cleavage reactions were monitored in most cases after 1, 2, 4, 5, 7, 10, 12, 15, 17 and 20 hrs. Some reactions were monitored after 5, 10 minutes and others after 72 and 100 hrs. The SVPDE is obtained from two different species of snakes, crotalus adamanteus and crotalus durissus. It has been observed that there is no variation in the cleavage experiments as a result of this change. […]

Substance: ([cytarabine-pO]3-[2′O-methylcytidine-pO]2)3 [Oligo 2]
- full length oligo cleaved (estimated) [1]: more than 50%
- ratio of 2′O-MeCMP to dCMP reached as the cleavage progressed [1]: 5
- ratio of araCMP to dCMP reached as the cleavage progressed [1]: 6

Substance: polycylidilic acid [Oligo 7, reference compound]
- digestion [1]: more than 90%

Substance: (cytarabine-pO)15-dC [Oligo 1]
- cleavage/degradation observed by CGE [1]: minor cleavage
- oligonucleotide degraded to monomers [1]: ~20%
- oligonucleotide degraded to oligomers of smaller lengths [1]: ~50%
- ratio of araCMP to dCMP reached as the cleavage progressed [1]: 13
- ratio of araCMP to dCMP, starting value as the cleavage progressed [1]: 3

Substance: [dC-pO] 14-dC-OH [Oligo 6, reference compound]
- cleavage/degradation observed by CGE (snake phosphodiesterase; after 30 minutes): a series of shorter oligomers due to partial cleavage was observed
- cleavage/degradation observed by CGE (snake phosphodiesterase; after 2 hours): no full length oligonucleotide was observed
- digestion [1]: more than 90%

Substance: [2′O-methylcytarabine-pO] 15-dC [Oligo 5]
- oligonucleotide degraded [1]: more than 80%
